Assay results reported in patent EP4473972A1, “COMBINATIONS COMPRISING AN ATR INHIBITOR WITH SYNERGISTIC EFFECT AGAINST GLIOMAS” (Eberhard-Karls-Universität Tübingen, priority 2023, dated 2024).

Legend:
SMA560 glioma cells = experiment: Syngeneic glioma mouse model (survival); assay type: in vivo, VM/Dk mice; conditions: 50 mg/kg bodyweight via oral gavage, five days on, two days treatment holiday; survival = time until the onset of neurological symptoms; vehicle control 14 days
Source text: All animal experiments were approved by the regional council Tübingen and conducted in accordance with animal law. Animals used in this study are kept and bred in the animal facility of the institute. They are regularly analyzed for infectious diseases. The inventors injected 5000 SMA560 glioma cells into the right striatum of VM/Dk mice (male and female). On day 5 post surgery, they randomized mice into treatment and control arm. The inventors administered AZD6738 (celasertib, Selleckchem, Houston, TX, US) at 50 mg/kg bodyweight or vehicle control via oral gavage for five days followed by two days of treatment holiday. Animals were closely monitored as shown in the scoring sheets. The endpoint of the experiment was according to the animal law "the time until the onset of neurological symptoms", in the text designated as "survival".

LNZ308 cells [1] = experiment: Cell cycle analysis (propidium iodide flow cytometry); assay type: cell-based, human; conditions: LNZ308, 72 h
Method: (§1) The inventors seeded the cells on day one and treated them on the next day. After 72 h, they detached the cells and stained them with propidium iodide solution (50 µg/mL propidium iodide (Thermo Fisher Scientific, Waltham, MA, US), 0.2% Triton X-100 (Roth, Karlsruhe, Germany), 100 µg RNase (Thermo Fisher Scientific, Waltham, MA, US), 1 g/L glucose in PBS (phosphate buffered saline) (Gibco, Carlsbad, CA, US). Flow cytometry was done using a MACSQuant Analyzer 10 (Miltenyi Biotec, Bergisch Gladbach, Germany). The inventors analyzed the acquired data with the FlowJo software (Beckton, Dickinson & Company, Franklin Lakes, NJ, US).

LN229 cells [2] = experiment: as above; assay type: cell-based, human; conditions: LN229, 72 h
Method: as §1

LNZ308 cells [3] = experiment: Clonogenic survival assay; assay type: cell-based, human; conditions: treated 24 h in serum-free medium
Method: (§2) Cells were seeded the day before treatment. The inventors treated the cells in the indicated concentrations in serum-free medium for 24 h after which they changed the medium back to medium containing FCS, followed by a 7 to 21 day incubation time. The inventors used crystal violet (0.5% w/v) to stain colonies and analyzed the area coverage using the ImageJ software Plugln ColonyArea. Measurements were normalized to respective vehicle control wells.

LN229 cells [4] = experiment: Clonogenic survival assay; assay type: cell-based, human; conditions: treated 24 h in serum-free medium
Method: as §2

Q: For C[C@@H]1COCCN1c1cc(C2([S@](C)(=N)=O)CC2)nc(-c2cc[nH]c3nccc2-3)n1 [AZD6738, ceralasertib], which median survival (SMA560 glioma cells) is on record?
A: 21 days

Q: And the cell cycle alterations (LNZ308 cells [1])?
A: accumulation of LNZ308 cells in G2-M phase

Q: And the cell cycle alterations (LN229 cells [2])?
A: accumulation in S phase

Q: And the clonogenic survival (LNZ308 cells [3])?
A: dose-dependent reduction

Q: What about the clonogenic survival (LN229 cells [4]) of the same compound?
A: dose-dependent reduction
